In the supplement of paper PMC11061612:

Legend:
Assay in all cases: combination Emax (second highest fraction inhibited in the dose matrix, 72 h); higher = more inhibition; extreme values may be limits of the assay
[1] = system: PC-3_[JPC-3] (Lung Adenocarcinoma)
Summary of the method: (§1)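 Bliss excess equals the observed combination effect minus the expected value EA + EB − EA·EB, where EA and EB are the effects of each agent alone. Combination Emax is the second-highest inhibition within the matrix. Inhibition was scaled from CellTiter-Glo 2.0 luminescence, with 0 set by vehicle wells and 1 by blank wells, after 72 hours of two-drug dosing of cells plated in 1536-well plates.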

[2] = system: MFE-280 (Endometrial Carcinoma)
Summary of the method: as §1

[3] = system: COLO-680N (Esophageal Squamous Cell Carcinoma)
Summary of the method: as §1

WM793B (Melanoma) = system: WM793B (Melanoma)
Summary of the method: as §1

IST-MES1 (Mesothelioma) = system: IST-MES1 (Mesothelioma)
Summary of the method: as §1

[4] = system: OPM-2 (Plasma Cell Myeloma)
Summary of the method: as §1

SF268 (Low Grade Glioma) = system: SF268 (Low Grade Glioma)
Summary of the method: as §1

[5] = system: LB996-RCC (Kidney Carcinoma)
Summary of the method: as §1

[6] = system: NCI-H2342 (Lung Adenocarcinoma)
Summary of the method: as §1

[7] = system: OAW-42 (Ovarian Carcinoma)
Summary of the method: as §1

[8] = system: RCM-1 (Colorectal Carcinoma)
Summary of the method: as §1

[9] = system: HEC-1 (Endometrial Carcinoma)
Summary of the method: as §1

[10] = system: RKN (Other Solid Carcinomas)
Summary of the method: as §1

SF539 (Glioblastoma) = system: SF539 (Glioblastoma)
Summary of the method: as §1

[11] = system: FADU (Head and Neck Carcinoma)
Summary of the method: as §1

[12] = system: SU-DHL-10 (B-Cell Non-Hodgkin's Lymphoma)
Summary of the method: as §1

[13] = system: PSN1 (Pancreatic Carcinoma)
Summary of the method: as §1

[14] = system: CAL-62 (Thyroid Gland Carcinoma)
Summary of the method: as §1

[15] = system: GP5d (Colorectal Carcinoma)
Summary of the method: as §1

[16] = system: LK-2 (Squamous Cell Lung Carcinoma)
Summary of the method: as §1

Row | Compound | combination Emax [1] | combination Emax [2] | combination Emax [3] | combination Emax (WM793B (Melanoma)) | combination Emax (IST-MES1 (Mesothelioma)) | combination Emax [4] | combination Emax (SF268 (Low Grade Glioma)) | combination Emax [5] | combination Emax [6] | combination Emax [7] | combination Emax [8] | combination Emax [9] | combination Emax [10] | combination Emax (SF539 (Glioblastoma)) | combination Emax [11] | combination Emax [12] | combination Emax [13] | combination Emax [14] | combination Emax [15] | combination Emax [16]
1 | CN(C)CCCOc1ccc(-c2ccc3ncc4c(c3c2)n(C2CCOCC2)c(=O)n4C)cn1 [AZD0156] + O=C(c1cc(Cc2n[nH]c(=O)c3ccccc23)ccc1F)N1CCN(C(=O)C2CC2)CC1 [Olaparib] (first compound max 3 µM, partner max 3 µM) | 0.181 | 0.312 | 0.16 | 0.197 | 0.212 | 0.231 | 0.21 | 0.38 | 0.0678 | 0.282 | 0.287 | 0.139 | 0.214 | 0.501 | 0.258 | 0.342 | 0.228 | 0.342 | 0.297 | 0.372
2 | C=CCn1c(=O)c2cnc(Nc3ccc(N4CCN(C)CC4)cc3)nc2n1-c1cccc(C(C)(C)O)n1 [AZD1775] + C1CN(CCC1(C(=O)N[C@@H](CCO)C2=CC=C(C=C2)Cl)N)C3=NC=NC4=C3C=CN4 [Capivasertib] (first compound max 3 µM, partner max 3 µM) | 0.577 | 0.451 | 0.306 | 0.606 | 0.292 | 0.967 | 0.456 | 0.783 | 0.282 | 0.467 | 0.628 | 0.615 | 0.762 | 0.967 | 0.644 | 1 | 0.763 | 0.868 | 0.973 | 0.941
3 | CN(CCO)CC[C@H](CSc1ccccc1)Nc1ccc(S(=O)(=O)NC(=O)c2ccc(N3CCC([C@@H](O)c4ccccc4-c4ccc(Cl)cc4)CC3)cc2)cc1S(=O)(=O)C(F)(F)F [AZD4320] + C1CN(CCC1(C(=O)N[C@@H](CCO)C2=CC=C(C=C2)Cl)N)C3=NC=NC4=C3C=CN4 [Capivasertib] (first compound max 1 µM, 7x7, partner max 3 µM) | 0.152 | 0.88 | 0.0496 | 0.281 | 0.0905 | 0.955 | 0.211 | 0.494 | 0.3 | 0.282 | 0.343 | 0.295 | 0.154 | 0.461 | 0.116 | 0.97 | 0.276 | 0.152 | 0.72 | 0.655
4 | CN(CCO)CC[C@H](CSc1ccccc1)Nc1ccc(S(=O)(=O)NC(=O)c2ccc(N3CCC([C@@H](O)c4ccccc4-c4ccc(Cl)cc4)CC3)cc2)cc1S(=O)(=O)C(F)(F)F [AZD4320] + C=CCn1c(=O)c2cnc(Nc3ccc(N4CCN(C)CC4)cc3)nc2n1-c1cccc(C(C)(C)O)n1 [AZD1775] (first compound max 1 µM, partner max 1 µM) | 0.411 | 0.953 | 0.223 | 0.622 | 0.461 | 0.955 | 0.587 | 0.978 | 0.38 | 0.496 | 0.717 | 0.456 | 0.315 | 0.978 | 0.453 | 0.992 | 0.592 | 0.878 | 0.782 | 0.992
5 | CN(CCO)CC[C@H](CSc1ccccc1)Nc1ccc(S(=O)(=O)NC(=O)c2ccc(N3CCC([C@@H](O)c4ccccc4-c4ccc(Cl)cc4)CC3)cc2)cc1S(=O)(=O)C(F)(F)F [AZD4320] + CN(C)CCCOc1ccc(-c2ccc3ncc4c(c3c2)n(C2CCOCC2)c(=O)n4C)cn1 [AZD0156] (first compound max 1 µM, 7x7, partner max 1 µM) | 0.238 | 0.891 | 0.137 | 0.251 | 0.104 | 0.687 | 0.291 | 0.227 | 0.27 | 0.261 | 0.435 | 0.372 | 0.102 | 0.27 | 0.124 | 0.144 | 0.315 | 0.228 | 0.323 | 0.712
6 | CN(CCO)CC[C@H](CSc1ccccc1)Nc1ccc(S(=O)(=O)NC(=O)c2ccc(N3CCC([C@@H](O)c4ccccc4-c4ccc(Cl)cc4)CC3)cc2)cc1S(=O)(=O)C(F)(F)F [AZD4320] + C[C@@H]1COCCN1C2=NC(=NC(=C2)C3(CC3)[S@](=N)(=O)C)C4=C5C=CNC5=NC=C4 [AZD6738] (first compound max 1 µM, 7x7, partner max 10 µM) | 0.375 | 0.88 | 0.346 | 0.844 | 0.296 | 0.927 | 0.78 | 0.837 | 0.377 | 0.748 | 0.862 | 0.613 | 0.242 | 0.959 | 0.583 | 0.899 | 0.453 | 0.936 | 0.859 | 0.769
7 | CN(CCO)CC[C@H](CSc1ccccc1)Nc1ccc(S(=O)(=O)NC(=O)c2ccc(N3CCC([C@@H](O)c4ccccc4-c4ccc(Cl)cc4)CC3)cc2)cc1S(=O)(=O)C(F)(F)F [AZD4320] + C[C@@H](Nc1cc(F)cc(F)c1)c1cc(C(=O)N(C)C)cc2c(=O)cc(N3CCOCC3)oc12 [AZD8186] (first compound max 1 µM, 7x7, partner max 3 µM) | 0.562 | 0.864 | 0.243 | 0.531 | 0.325 | 0.589 | 0.66 | 0.654 | 0.443 | 0.414 | 0.532 | 0.392 | 0.314 | 0.373 | 0.846 | 0.81 | 0.487 | 0.925 | 0.644 | 0.794
8 | CN(CCO)CC[C@H](CSc1ccccc1)Nc1ccc(S(=O)(=O)NC(=O)c2ccc(N3CCC([C@@H](O)c4ccccc4-c4ccc(Cl)cc4)CC3)cc2)cc1S(=O)(=O)C(F)(F)F [AZD4320] + Cc1cc2ncnn2cc1Nc1ncc2c(n1)n(C1CCOCC1)c(=O)n2C [AZD7648] (first compound max 1 µM, 7x7, partner max 10 µM) | 0.243 | 0.774 | 0.0933 | 0.221 | 0.113 | 0.71 | 0.164 | 0.321 | 0.27 | 0.348 | 0.351 | 0.337 | 0.135 | 0.214 | 0.12 | 0.474 | 0.315 | 0.26 | 0.295 | 0.746
9 | CN(CCO)CC[C@H](CSc1ccccc1)Nc1ccc(S(=O)(=O)NC(=O)c2ccc(N3CCC([C@@H](O)c4ccccc4-c4ccc(Cl)cc4)CC3)cc2)cc1S(=O)(=O)C(F)(F)F [AZD4320] + Cn1cnc2c(F)c(Nc3ccc(Br)cc3Cl)c(C(=O)NOCCO)cc21 [Selumetinib] (first compound max 1 µM, 7x7, partner max 3 µM) | 0.571 | 0.705 | 0.246 | 0.578 | 0.257 | 0.556 | 0.69 | 0.513 | 0.423 | 0.436 | 0.785 | 0.366 | 0.326 | 0.346 | 0.832 | 0.617 | 0.664 |  | 0.9 | 0.699
10 | COc1nnc2ccc(N3CCC(c4ccc(OCCN5CCN(C)C(=O)[C@H]5C)cc4)CC3)nn12 [AZD5153] + C=CCn1c(=O)c2cnc(Nc3ccc(N4CCN(C)CC4)cc3)nc2n1-c1cccc(C(C)(C)O)n1 [AZD1775] (first compound max 1 µM, partner max 1 µM) | 0.58 | 0.383 | 0.353 | 0.636 | 0.576 | 1 | 0.637 | 0.835 | 0.711 | 0.615 | 0.667 | 0.827 | 0.527 | 0.944 | 0.592 | 1 | 0.54 | 0.79 | 0.848 | 0.929
11 | COc1nnc2ccc(N3CCC(c4ccc(OCCN5CCN(C)C(=O)[C@H]5C)cc4)CC3)nn12 [AZD5153] + CC1(C)CCC(CN2CCN(c3ccc(C(=O)NS(=O)(=O)c4ccc(NCC5CCOCC5)c([N+](=O)[O-])c4)c(Oc4cnc5[nH]ccc5c4)c3)CC2)=C(c2ccc(Cl)cc2)C1 [Venetoclax] (first compound max 1 µM, 7x7, partner max 1 µM) | 0.364 | 0.38 | 0.344 | 0.523 | 0.591 | 1 | 0.462 | 0.473 | 0.315 | 0.35 | 0.557 | 0.602 | 0.485 | 0.604 | 0.521 | 1 | 0.334 | 0.753 | 0.682 | 0.396
12 | COc1nnc2ccc(N3CCC(c4ccc(OCCN5CCN(C)C(=O)[C@H]5C)cc4)CC3)nn12 [AZD5153] + CCN(CCO)CCCOc1ccc2c(Nc3cc(CC(=O)Nc4cccc(F)c4)[nH]n3)ncnc2c1 [AZD2811] (first compound max 1 µM, 7x7, partner max 1 µM) | 0.425 | 0.348 | 0.357 | 0.641 | 0.653 | 1 | 0.609 | 0.534 | 0.433 | 0.459 | 0.612 | 0.607 | 0.44 | 0.699 | 0.533 | 1 | 0.566 | 0.774 | 0.728 | 0.625
